Data from US9561231B2 (AbbVie Inc., priority 2012, dated 2017).

How the values were obtained:
[1] = molecular target: T1, first (BD1: amino acids K57-E168) bromodomain of BRD4 (Homo sapiens, UniProt O60885); experiment: TR-FRET bromodomain binding assay, BRD4 BD1; settings: TR-FRET assay protocol (A-G, compound concentration range); Ki calculated from IC50, probe Kd and probe concentration; read-out: TR-FRET Binding Ki: BRD4 (BDI_K57-E168)
T1 construct: His-tagged first (BD1: amino acids K57-E168)
How it was run: (§1)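 His-tagged BRD4 bromodomain competed against an Alexa647-labeled BET-inhibitor probe by TR-FRET in 20 mM sodium phosphate pH 6.0, 50 mM NaCl, 1 mM EDTA, 0.01% Triton X-100, 1 mM DTT.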

[2] = molecular target: T2, second (BD2: amino acids E352-E168) bromodomain of BRD4 (Homo sapiens, UniProt O60885); experiment: TR-FRET bromodomain binding assay, BRD4 BD2; settings: TR-FRET assay protocol (A-G, compound concentration range); Ki calculated from IC50, probe Kd and probe concentration; read-out: TR-FRET Binding Ki: BRD4 (BDII_E352-M457)
T2 construct: protocol
How it was run: as §1

[3] = tested on: breast cancer cell line MX-1; experiment: MX-1 cell line proliferation assay (3-day); assay type: cell-based; settings: Homo sapiens, MX1; MX-1 cells, 72 h incubation, Cell Titer Glo; read-out: Cellular proliferation: EC50
Procedure: The impact of compounds of the Examples on cancer cell proliferation was determined using the breast cancer cell line MX-1 (ATCC) in a 3-day proliferation assay. MX-1 cells were maintained in RPMI supplemented with 10% FBS at 37° C. and an atmosphere of 5% CO2. For compound testing, MX-1 cells were plated in 96-well black bottom plates at a density of 5000 cells/well in 90 μL of culture media and incubated at 37° overnight to allow cell adhesion and spreading. Compound dilution series were prepared in DMSO via a 3-fold serial dilution from 3 mM to 0.1 μM. The DMSO dilution series were then diluted 1:100 in phosphate buffered saline, and 10 μL of the resulted solution were added to the appropriate wells of the MX-1 cell plate. The final compound concentrations in the wells were 3, 1, 0.3, 0.1, 0.03, 0.01, 0.003, 0.001, 0.0003 and 0.0001 μM.
Luminescence readings from the Cell Titer Glo assay were normalized to the DMSO treated cells and analyzed using the GraphPad Prism software with sigmoidal curve fitting to obtain EC50s.

Structure (SMILES)	Ki [1] [nM]	Ki [2] [nM]	EC50 [3] [nM]
CC1CCN(Cc2ccc(-c3cc(=O)n(C)nc3-c3ccccc3Oc3ccccc3)cc2)CC1 [Example 68, 2-methyl-5-{4-[(4-methylpiperidin-1-yl)methyl]phenyl}-6-(2-phenoxyphenyl)pyridazin-3(2H)-one]	63.1	71.9	1110
CCN(CC)Cc1ccc(-c2cc(=O)n(C)nc2-c2ccccc2Oc2ccccc2)cc1 [Example 69, 5-{4-[(diethylamino)methyl]phenyl}-2-methyl-6-(2-phenoxyphenyl)pyridazin-3(2H)-one]	98	225	> 3000
Cn1nc(-c2ccccc2Oc2ccccc2)c(-c2ccc(CN3CCNCC3)cc2)cc1=O [Example 70, 2-methyl-6-(2-phenoxyphenyl)-5-[4-(piperazin-1-ylmethyl)phenyl]pyridazin-3(2H)-one]	89.1	62	815
Cn1nc(-c2ccccc2Oc2ccccc2)c(-c2ccc(CN3CCCC3)cc2)cc1=O [Example 71, 2-methyl-6-(2-phenoxyphenyl)-5-[4-(pyrrolidin-1-ylmethyl)phenyl]pyridazin-3(2H)-one]	62.2	133	398
CC(O)c1ccc(-c2cc(=O)n(C)nc2-c2ccccc2Oc2ccccc2)cc1 (stereo not drawn) [Example 72, 5-[4-(1-hydroxyethyl)phenyl]-2-methyl-6-(2-phenoxyphenyl)pyridazin-3(2H)-one]	225	128	3750
CC(C)C(O)c1ccc(-c2cc(=O)n(C)nc2-c2ccccc2Oc2ccccc2)cc1 (stereo not drawn) [Example 73, 5-[4-(1-hydroxy-2-methylpropyl)phenyl]-2-methyl-6-(2-phenoxyphenyl)pyridazin-3(2H)-one]	462	307	1130
CCC(O)c1ccc(-c2cc(=O)n(C)nc2-c2ccccc2Oc2ccccc2)cc1 (stereo not drawn) [Example 75, 5-[4-(1-hydroxypropyl)phenyl]-2-methyl-6-(2-phenoxyphenyl)pyridazin-3(2H)-one]	264	195	1390
COCc1ccc(-c2cc(=O)n(C)nc2-c2ccccc2Oc2ccccc2)cc1 [Example 78, 5-[4-(methoxymethyl)phenyl]-2-methyl-6-(2-phenoxyphenyl)pyridazin-3(2H)-one]	435	211	> 3000
Cn1nc(-c2ccccc2Oc2ccccc2)c(-c2ccc(CO)cc2)cc1=O [Example 79, 5-[4-(hydroxymethyl)phenyl]-2-methyl-6-(2-phenoxyphenyl)pyridazin-3(2H)-one]	126	87.5	1870
Cn1nc(-c2ccccc2Oc2ccccc2)c(C2=CCN(C(=O)OC(C)(C)C)CC2)cc1=O [Example 81, tert-butyl 4-[1-methyl-6-oxo-3-(2-phenoxyphenyl)-1,6-dihydropyridazin-4-yl]-3,6-dihydropyridine-1(2H)-carboxylate]	1120	733	> 3000
COC(=O)CCc1ccc(-c2cc(=O)n(C)nc2-c2ccccc2Oc2ccccc2)cc1 [Example 92, methyl 3-{4-[1-methyl-6-oxo-3-(2-phenoxyphenyl)-1,6-dihydropyridazin-4-yl]phenyl}propanoate]	770	455	1130
Cn1nc(-c2ccccc2Oc2ccccc2)c(-c2ccc(C3=NCCCO3)cc2)cc1=O [Example 95, 5-[4-(5,6-dihydro-4H-1,3-oxazin-2-yl)phenyl]-2-methyl-6-(2-phenoxyphenyl)pyridazin-3(2H)-one]	172	145	> 3000
Cn1nc(-c2ccccc2Oc2ccccc2)c(-c2ccc(CNS(C)(=O)=O)cc2)cc1=O [Example 98, N-{4-[1-methyl-6-oxo-3-(2-phenoxyphenyl)-1,6-dihydropyridazin-4-yl]benzyl}methanesulfonamide]	216	71.2	639
CC(=O)NCc1ccc(-c2cc(=O)n(C)nc2-c2ccccc2Oc2ccccc2)cc1 [Example 99, N-{4-[1-methyl-6-oxo-3-(2-phenoxyphenyl)-1,6-dihydropyridazin-4-yl]benzyl}acetamide]	142	58.7	558
CC(=O)NCCc1ccc(-c2cc(=O)n(C)nc2-c2ccccc2Oc2ccccc2)cc1 [Example 100, N-(2-{4-[1-methyl-6-oxo-3-(2-phenoxyphenyl)-1,6-dihydropyridazin-4-yl]phenyl}ethyl)acetamide]	143	72.2	> 3000
Cn1nc(-c2ccccc2Oc2ccccc2)c(-c2ccc(CCCO)cc2)cc1=O [Example 101, 5-[4-(3-hydroxypropyl)phenyl]-2-methyl-6-(2-phenoxyphenyl)pyridazin-3(2H)-one]	233	147	1130
Cn1cc(-c2cc(=O)n(C)nc2-c2ccccc2Oc2ccccc2)cn1 [Example 103, 2-methyl-5-(1-methyl-1H-pyrazol-4-yl)-6-(2-phenoxyphenyl)pyridazin-3(2H)-one]	253	109	> 3000
CC(=O)Nc1ccc(-c2cc(=O)n(C)nc2-c2ccccc2Oc2ccccc2)cc1 [Example 105, N-{4-[1-methyl-6-oxo-3-(2-phenoxyphenyl)-1,6-dihydropyridazin-4-yl]phenyl}acetamide]	516	84.7	> 3000
Cn1nc(-c2ccccc2Oc2ccccc2)c(-c2ccc(S(N)(=O)=O)cc2)cc1=O [Example 112, 4-[1-methyl-6-oxo-3-(2-phenoxyphenyl)-1,6-dihydropyridazin-4-yl]benzenesulfonamide]	138	181	1280
Cn1nc(-c2ccccc2Oc2ccccc2)c(-c2ccc(NS(C)(=O)=O)cc2)cc1=O [Example 119, N-{4-[1-methyl-6-oxo-3-(2-phenoxyphenyl)-1,6-dihydropyridazin-4-yl]phenyl}methanesulfonamide]	135	63.6	615
CNC(=O)c1ccc(-c2cc(=O)n(C)nc2-c2ccccc2Oc2ccccc2)cc1 [Example 127, N-methyl-4-[1-methyl-6-oxo-3-(2-phenoxyphenyl)-1,6-dihydropyridazin-4-yl]benzamide]	249	139	> 3000
Cn1nc(-c2ccccc2Oc2ccccc2)c(-c2ccc(N3CCOCC3)cc2)cc1=O [Example 149, 2-methyl-5-[4-(morpholin-4-yl)phenyl]-6-(2-phenoxyphenyl)pyridazin-3(2H)-one]	213	259	384
CN1CCN(c2ccc(-c3cc(=O)n(C)nc3-c3ccccc3Oc3ccccc3)cc2)CC1 [Example 161, 2-methyl-5-[4-(4-methylpiperazin-1-yl)phenyl]-6-(2-phenoxyphenyl)pyridazin-3(2H)-one]	26.3	24.9	244
CC(C)N1CCN(c2ccc(-c3cc(=O)n(C)nc3-c3ccccc3Oc3ccccc3)cc2)CC1 [Example 180, 2-methyl-6-(2-phenoxyphenyl)-5-{4-[4-(propan-2-yl)piperazin-1-yl]phenyl}pyridazin-3(2H)-one]	44.5	67.7	372
CNc1ccc(-c2cc(=O)n(C)nc2-c2ccccc2Oc2ccccc2)cc1 [Example 191, 2-methyl-5-[4-(methylamino)phenyl]-6-(2-phenoxyphenyl)pyridazin-3(2H)-one]	324	162	1430
Cn1nc(-c2ccccc2Oc2ccccc2)c(-c2cccc(CC#N)c2)cc1=O [Example 193, {3-[1-methyl-6-oxo-3-(2-phenoxyphenyl)-1,6-dihydropyridazin-4-yl]phenyl}acetonitrile]	167	1010	1290
COC(=O)c1cc(=O)n(C)nc1-c1ccccc1Oc1ccccc1 [Example 218, methyl 1-methyl-6-oxo-3-(2-phenoxyphenyl)-1,6-dihydropyridazine-4-carboxylate]	778	1140	9700
COC(=O)/C=C/c1cc(=O)n(C)nc1-c1ccccc1Oc1ccccc1 [Example 219, methyl (2E)-3-[1-methyl-6-oxo-3-(2-phenoxyphenyl)-1,6-dihydropyridazin-4-yl]prop-2-enoate]	7250	308	5500
COC(=O)CCc1cc(=O)n(C)nc1-c1ccccc1Oc1ccccc1 [Example 220, methyl 3-[1-methyl-6-oxo-3-(2-phenoxyphenyl)-1,6-dihydropyridazin-4-yl]propanoate]	24300	1910	16400
